Test results from patent US20080153796A1, “Promotion of wound contraction” (RENOVO LIMITED, priority 2006, published 2008).

Tests used:
[1] = tested on: full thickness cutaneous excisional wounds (punch biopsies); test: Wound width three days after punch biopsies in human volunteers (histological assessment); format: in vivo; conditions: day 3; for average wound width: single intradermal injection 10-30 min before 3 mm punch biopsy
Excerpt: A single site, double-blind study was undertaken to illustrate the efficacy of medicaments of the invention in promoting contraction of punch biopsy wounds in healthy male and post-menopausal female subjects. The control treatments used in this study were Placebo (vehicle) and Standard Care (moist wound healing dressings).
44 healthy subjects were recruited to the study, of whom, 40 were healthy males (aged 18-75years) and 4 were post-menopausal females (aged 53-69 years). The average age of subjects recruited to this study was 42 years. The post-menopausal status of female subjects was confirmed by quantification of serum levels of estradiol and follicle stimulating hormone (FSH). Serum levels of estradiol were required to be <90 pmol/L, and follicle stimulating hormone levels >31 IU/L.
Before wounding, each subject received either a medicament of the invention (providing a 100 μl intradermal injection of a solution comprising 400 ng of 17β-oestradiol in a diluent comprising PBS and 5% v/v ethanol), or a control medicament (two used, providing a 100 μl intradermal injection of a solution comprising either 20 ng or 100 ng respectively of 17β-oestradiol in a diluent comprising PBS and 5% v/v ethanol). The experimental medicaments (either of the invention or control) were administered intradermally as a single dose at a volume of 100 μl per wound site, 10-30 minutes before wounding to sites on the upper, inner aspect of the arm. This administration was sufficient to prophylactically “prime” an area of 1 cm^2 of unwounded skin prior to wounding. Wounds were made with a 3 mm punch biopsy.
Biopsy sites were excised, using a 5 mm punch biopsy, three days after wounding. Excised wounds were preserved for histological assessment of wound width. All histological assessments were made using preserved 5 micron-thickness wound sections taken from the widest part of each excised biopsy site. Sections were stained with Haematoxylin and Eosin to aid visualisation of structural features, and measurements made using image analysis software. The wound diameter is the linear total wound diameter of the wound section measured in micrometres. The average wound diameter value was calculated from the 44 wounds of each treatment group.

[2] = matrix of U.S. Pat. No. 5,252,334, without drug delivery rate enhancers; cited from earlier work
[3] = 100 μg of oestradiol applied in a gel; six hours from application; cited from earlier work

Structure (SMILES): C[C@]12CC[C@@H]3c4ccc(O)cc4CC[C@H]3[C@@H]1CC[C@@H]2O [17β-oestradiol]
- average wound width ([1]; 20 ng 17β-oestradiol in 100 μl PBS/5% v/v ethanol, control medicament): 2626 μm
- average wound width ([1]; 100 ng 17β-oestradiol in 100 μl PBS/5% v/v ethanol, control medicament): 2612 μm
- average wound width ([1]; 400 ng 17β-oestradiol in 100 μl PBS/5% v/v ethanol, medicament of the invention): 2480 μm
- wound width compared to control treated or untreated wounds ([1]; 400 ng 17β-oestradiol, intradermal): significantly decreased
- rate of administration per hour per square centimetre of skin [2]: approximately 0.2 μg
- amount of applied oestradiol found in the skin or having passed through the skin [3]: 15.7 µg
